# Source: US11254663B2 (BRISTOL-MYERS SQUIBB COMPANY, priority 2019, dated 2022)
# Molecular target: FXR (Homo sapiens (Human), UniProt Q96RI1)
# Experiment: transient human FXR/Gal4-luciferase reporter assay
# Type: cell-based
# Conditions: not given
# Procedure, shortened: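 HEK293 cells stably carrying a 5×Gal4 response element–firefly luciferase reporter were transiently transfected overnight with a Gal4 DBD–human FXR LBD fusion plasmid. Compound was added in DMSO and cells were incubated overnight at 37 °C, 5% CO2. Activity was read as Steady-Glo luminescence.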
# Sequence of FXR (Q96RI1 262-486): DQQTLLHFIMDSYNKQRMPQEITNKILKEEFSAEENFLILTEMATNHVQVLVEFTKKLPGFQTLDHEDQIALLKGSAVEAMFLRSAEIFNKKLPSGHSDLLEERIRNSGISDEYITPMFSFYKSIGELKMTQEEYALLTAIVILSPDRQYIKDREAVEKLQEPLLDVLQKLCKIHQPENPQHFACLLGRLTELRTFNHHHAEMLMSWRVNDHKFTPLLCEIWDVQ
row,Structure (SMILES),EC50
1,"CC(C)(C)c1nc(C23CCC(CN(C(=O)C45CC(F)(C4)C5)c4cc(-c5cnc6nc(C7CC7)sc6c5)ccn4)(CC2)CC3)no1 [Example 535, N-((4-(5-(tert-butyl)-1,2,4-oxadiazol-3-yl)bicyclo[2.2.2]octan-1-yl)methyl)-N-(4-(2-cyclopropylthiazolo[4,5-b]pyridin-6-yl)pyridin-2-yl)-3-fluorobicyclo[1.1.1]pentane-1-carboxamide]",202 nM
2,"CCOc1ncc(-c2cccc(N(CC34CCC(c5nc(C(C)(C)C)no5)(CC3)CC4)C(=O)C3(C)COC3)c2)cn1 [Example 503, N-((4-(3-(tert-butyl)-1,2,4-oxadiazol-5-yl)bicyclo[2.2.2]octan-1-yl)methyl)-N-(3-(2-ethoxypyrimidin-5-yl)phenyl)-3-methyloxetane-3-carboxamide]",1580 nM
3,"O=C(N(CC12CCC(c3nc(C(F)F)no3)(CC1)CC2)c1cccc(-c2cnc(C(F)(F)F)nc2)c1)C12CC(F)(C1)C2 [Example 467, N-((4-(3-(difluoromethyl)-1,2,4-oxadiazol-5-yl)bicyclo[2.2.2]octan-1-yl)methyl)-3-fluoro-N-(3-(2-(trifluoromethyl)pyrimidin-5-yl)phenyl)bicyclo[1.1.1]pentane-1-carboxamide]",2110 nM
4,"O=C(C1CC(F)(F)C1)N(CC12CCC(c3nc(C4CC4)no3)(CC1)CC2)c1cccc(-c2nc3cc(F)ccc3o2)c1 [Example 560, N-((4-(3-cyclopropyl-1,2,4-oxadiazol-5-yl)bicyclo[2.2.2]octan-1-yl)methyl)-3,3-difluoro-N-(3-(5-fluorobenzo[d]oxazol-2-yl)phenyl)cyclobutane-1-carboxamide]",1510 nM

# Same assay, conditions: Gal4-hFXR fusion construct, HEK293 reporter cells; response relative to 8 μM GW-4064
row,Structure (SMILES),EC50
1,"COc1nccc(-c2cccc(N(CC34CCC(c5nc(C6CC6)no5)(CC3)CC4)C(=O)C34CC(F)(C3)C4)c2)n1 [Example 242, N-((4-(3-cyclopropyl-1,2,4-oxadiazol-5-yl)bicyclo[2.2.2]octan-1-yl)methyl)-3-fluoro-N-(3-(2-methoxypyrimidin-4-yl)phenyl)bicyclo[1.1.1]pentane-1-carboxamide]",276 nM
2,"O=C(N(CC12CCC(c3nc(C4CC4)no3)(CC1)CC2)c1cccc(-c2ccc(C(F)(F)F)cc2)c1)C12CC(F)(C1)C2 [Example 253, N-((4-(3-cyclopropyl-1,2,4-oxadiazol-5-yl)bicyclo[2.2.2]octan-1-yl)methyl)-3-fluoro-N-(4′-(trifluoromethyl)-[1,1′-biphenyl]-3-yl)bicyclo[1.1.1]pentane-1-carboxamide]",250 nM
3,"CC(C)OC(=O)NC12CCC(CN(C(=O)C3CC(O)(C(F)(F)F)C3)c3cccc(-c4ccc(C(C)(C)O)cc4)c3)(CC1)CC2 (stereo not drawn) [Example 602, Isopropyl (4-(((cis)-3-hydroxy-N-(4′-(2-hydroxypropan-2-yl)-[1,1′-biphenyl]-3-yl)-3-(trifluoromethyl)cyclobutane-1-carboxamido)methyl)bicyclo[2.2.2]octan-1-yl)carbamate]",142 nM
4,"CC(C)(C)NC(=O)N(CC12CCC(c3noc(C(F)(F)F)n3)(CC1)CC2)c1cccc(-c2ccc(OC(F)F)cc2)c1 [Example 612, 3-(tert-butyl)-1-(4′-(difluoromethoxy)-[1,1′-biphenyl]-3-yl)-1-((4-(5-(trifluoromethyl)-1,2,4-oxadiazol-3-yl)bicyclo[2.2.2]octan-1-yl)methyl)urea]",65 nM
5,"CC(C)(O)c1cnc(-c2ccnc(N(CC34CCC(c5ccc(C(C)(F)F)cn5)(CC3)CC4)C(=O)OC(C)(C)C(F)(F)F)c2)nc1 [Example 608, 1,1,1-trifluoro-2-methylpropan-2-yl ((4-(5-(1,1-difluoroethyl)pyridin-2-yl)bicyclo[2.2.2]octan-1-yl)methyl)(4-(5-(2-hydroxypropan-2-yl)pyrimidin-2-yl)pyridin-2-yl) carbamate]",301 nM
6,"COc1ccc(-c2cccc(N(CC34CCC(c5cc(C6CC6)nn5C)(CC3)CC4)C(=O)C34CC(F)(C3)C4)c2)cc1 [Example 414, N-((4-(3-cyclopropyl-1-methyl-1H-pyrazol-5-yl)bicyclo[2.2.2]octan-1-yl)methyl)-3-fluoro-N-(4′-methoxy-[1,1′-biphenyl]-3-yl)bicyclo[1.1.1]pentane-1-carboxamide]",85 nM
